Results from patent publication US10479795B2 (Incyte Corporation, priority 2016, dated 2019).
Where a name gives a salt, the structure may show the parent alone. Read-outs that look alike come from different tables or passages of the source.

What was measured:
[1] = tested on: Phosphorylated Ribosomal Protein S6 (RPS6); assay: THP-1 RPS6 ELISA Assay; format: cell-based, Human; settings: THP-1 cells, read-out: PI3Kγ_THP1_RPS6_ELISA IC50
Method in brief: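 Serum-starved THP-1 cells were preincubated with a concentration range of compound for 2 h at 37 °C, then stimulated with 10 nM MCP-1 for 15 min. Phospho-RPS6 in lysates was quantified by ELISA at 450 nm. IC50 came from percent inhibition versus log inhibitor concentration.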

[2] = target: PI3Kγ (p110γ) Recombinant Human Protein (Homo sapiens (Human), UniProt P48736); assay: PI3K-γ Scintillation Proximity Assay; format: biochemical; settings: read-out: PI3Kγ IC50
Method in brief: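 Recombinant human p110γ assayed at room temperature in 20 mM MOPS pH 6.7, 10 mM MgCl2, 5 mM DTT, 0.03% CHAPS, 2% DMSO, with 20 μM PIP2 and 2 μM ATP plus [γ-33P]ATP. Product captured on WGA SPA beads overnight and counted; IC50 fitted from % of solvent-control activity versus log inhibitor concentration.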

[3] = target: PI3Kδ (p110δ/p85α) Recombinant Human Protein (Homo sapiens (Human), UniProt O00329); assay: PI3Kδ Scintillation Proximity Assay; format: biochemical
Method in brief: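 Kinase reaction run at room temperature in 20 mM MOPS pH 6.7, 10 mM MgCl2, 5 mM DTT, 0.03% CHAPS with 20 μM PIP2, 2 μM ATP plus [γ-33P]ATP, 3.4 nM enzyme, 2% DMSO; 120 min. Quenched with WGA SPA beads/EDTA, counted by scintillation; IC50 from % solvent-control activity vs log concentration.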

Chain of PI3Kδ (p110δ/p85α) Recombinant Human Protein (O00329 whole entry): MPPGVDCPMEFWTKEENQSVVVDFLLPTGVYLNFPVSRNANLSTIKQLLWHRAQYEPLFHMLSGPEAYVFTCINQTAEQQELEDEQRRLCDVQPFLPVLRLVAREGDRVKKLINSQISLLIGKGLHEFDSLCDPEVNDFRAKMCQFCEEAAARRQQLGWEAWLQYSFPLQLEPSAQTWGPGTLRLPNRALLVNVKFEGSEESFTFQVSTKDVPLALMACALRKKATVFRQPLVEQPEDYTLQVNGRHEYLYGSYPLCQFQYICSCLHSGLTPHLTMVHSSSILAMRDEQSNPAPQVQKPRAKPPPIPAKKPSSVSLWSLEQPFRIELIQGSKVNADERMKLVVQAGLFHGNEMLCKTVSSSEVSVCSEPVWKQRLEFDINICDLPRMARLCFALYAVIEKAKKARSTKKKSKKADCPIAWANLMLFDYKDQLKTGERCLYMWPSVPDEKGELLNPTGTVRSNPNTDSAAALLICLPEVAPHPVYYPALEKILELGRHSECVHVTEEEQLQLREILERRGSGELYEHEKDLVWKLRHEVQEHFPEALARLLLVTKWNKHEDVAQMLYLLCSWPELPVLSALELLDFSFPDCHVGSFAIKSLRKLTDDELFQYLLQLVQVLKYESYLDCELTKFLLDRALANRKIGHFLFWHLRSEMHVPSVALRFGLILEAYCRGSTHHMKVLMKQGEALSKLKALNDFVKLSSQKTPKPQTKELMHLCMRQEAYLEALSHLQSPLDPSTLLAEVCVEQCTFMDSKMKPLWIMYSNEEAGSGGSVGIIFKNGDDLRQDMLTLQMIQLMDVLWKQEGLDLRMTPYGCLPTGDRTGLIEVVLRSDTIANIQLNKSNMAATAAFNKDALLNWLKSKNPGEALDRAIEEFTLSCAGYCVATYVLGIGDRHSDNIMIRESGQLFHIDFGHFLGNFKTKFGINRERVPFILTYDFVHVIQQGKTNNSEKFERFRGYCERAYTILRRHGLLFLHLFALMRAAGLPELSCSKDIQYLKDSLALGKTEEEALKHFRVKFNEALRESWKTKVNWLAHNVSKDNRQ
Chain of PI3Kδ (p110δ/p85α) Recombinant Human Protein (P27986 whole entry partner): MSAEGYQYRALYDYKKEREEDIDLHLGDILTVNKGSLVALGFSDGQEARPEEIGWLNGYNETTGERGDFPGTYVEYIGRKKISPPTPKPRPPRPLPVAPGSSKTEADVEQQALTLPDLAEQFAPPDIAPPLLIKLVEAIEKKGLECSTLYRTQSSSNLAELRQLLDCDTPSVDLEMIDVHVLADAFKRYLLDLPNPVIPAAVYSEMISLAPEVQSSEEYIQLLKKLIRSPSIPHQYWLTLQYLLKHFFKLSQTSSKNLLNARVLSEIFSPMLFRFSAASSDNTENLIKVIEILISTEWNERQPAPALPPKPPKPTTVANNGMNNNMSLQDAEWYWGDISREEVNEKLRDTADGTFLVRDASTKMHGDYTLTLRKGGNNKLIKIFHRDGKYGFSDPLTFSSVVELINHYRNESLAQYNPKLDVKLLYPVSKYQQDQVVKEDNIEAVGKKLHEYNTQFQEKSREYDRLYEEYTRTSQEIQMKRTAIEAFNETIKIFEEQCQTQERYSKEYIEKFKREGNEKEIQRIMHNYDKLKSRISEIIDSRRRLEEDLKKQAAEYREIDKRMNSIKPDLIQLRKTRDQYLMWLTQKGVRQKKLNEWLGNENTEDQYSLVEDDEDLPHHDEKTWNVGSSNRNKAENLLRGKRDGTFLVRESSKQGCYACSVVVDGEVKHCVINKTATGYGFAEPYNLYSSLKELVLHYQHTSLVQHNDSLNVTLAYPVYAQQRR
Chain of PI3Kγ (p110γ) Recombinant Human Protein (P48736 whole entry): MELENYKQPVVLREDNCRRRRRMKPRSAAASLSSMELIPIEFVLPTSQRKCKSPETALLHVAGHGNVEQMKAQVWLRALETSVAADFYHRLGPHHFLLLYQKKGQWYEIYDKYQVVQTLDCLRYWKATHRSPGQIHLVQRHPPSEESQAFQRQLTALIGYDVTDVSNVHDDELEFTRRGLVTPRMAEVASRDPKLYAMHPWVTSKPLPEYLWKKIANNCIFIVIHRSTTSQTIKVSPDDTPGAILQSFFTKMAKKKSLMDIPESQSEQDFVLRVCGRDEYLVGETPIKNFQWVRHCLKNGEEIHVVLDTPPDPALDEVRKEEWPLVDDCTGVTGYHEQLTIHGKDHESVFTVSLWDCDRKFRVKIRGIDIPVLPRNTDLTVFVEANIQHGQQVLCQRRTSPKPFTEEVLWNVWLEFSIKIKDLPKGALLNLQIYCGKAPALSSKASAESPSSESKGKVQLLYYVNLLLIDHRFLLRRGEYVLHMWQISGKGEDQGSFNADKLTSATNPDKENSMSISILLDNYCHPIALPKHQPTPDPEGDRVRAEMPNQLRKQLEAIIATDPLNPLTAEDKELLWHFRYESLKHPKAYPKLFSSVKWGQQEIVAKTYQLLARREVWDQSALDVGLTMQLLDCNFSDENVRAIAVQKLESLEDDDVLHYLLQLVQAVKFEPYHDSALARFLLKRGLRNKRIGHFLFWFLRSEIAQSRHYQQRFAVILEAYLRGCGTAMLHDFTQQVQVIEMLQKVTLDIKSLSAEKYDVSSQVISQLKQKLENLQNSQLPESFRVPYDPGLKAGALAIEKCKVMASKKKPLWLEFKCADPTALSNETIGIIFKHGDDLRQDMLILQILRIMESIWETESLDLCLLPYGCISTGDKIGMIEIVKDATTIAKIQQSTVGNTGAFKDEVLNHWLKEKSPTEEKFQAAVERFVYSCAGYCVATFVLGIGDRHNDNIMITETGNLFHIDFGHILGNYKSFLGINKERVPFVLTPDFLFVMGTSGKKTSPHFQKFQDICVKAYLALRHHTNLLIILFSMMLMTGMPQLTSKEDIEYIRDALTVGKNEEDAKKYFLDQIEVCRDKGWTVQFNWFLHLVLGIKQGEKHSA

Row | SMILES | IC50 ([1]; Homo sapiens) | IC50 [2] | IC50 [3] | IC50 [1]
1 | Cc1ccc(S(=O)(=O)NC(C)(C)C(N)=O)cc1-c1cnc2c(N)ncnn12 [Example 190, 2-((3-(4-aminoimidazo[2,1-f][1,2,4]triazin-7-yl)-4-methylphenyl)sulfonamido)-2-methylpropanamide trifluoroacetate] | > 1000 nM | < 100 nM | 500 to 2000 nM | 
2 | N#CC12CCC(NS(=O)(=O)c3cccc(-c4cnc5c(N)nc(C(F)(F)F)nn45)c3)(C1)C2 [Example 415, 3-(4-Amino-2-(trifluoromethyl)imidazo[1,2-f][1,2,4]triazin-7-yl)-N-(4-cyanobicyclo[2.1.1]hexan-1-yl)benzenesulfonamide trifluoroacetate salt] |  | < 100 nM | 100 to 500 nM | < 100 nM
3 | Cc1ccc(S(=O)(=O)N2C[C@H](N)C[C@H](C(F)(F)F)C2)cc1-c1cnc2c(N)nc(C(F)(F)F)cn12 [Example 307, 3-(5-(((3R,5S)-3-amino-5-(trifluoromethyl)piperidin-1-yl)sulfonyl)-2-methylphenyl)-6-(trifluoromethyl)imidazo[1,2-a]pyrazin-8-amine] | 100 to 500 nM | < 100 nM | < 100 nM | 
4 | Cc1ccc(S(=O)(=O)N2C(C)CCCC2CO)cc1-c1cnc2c(N)ncnn12 (stereo not drawn) [Example 157, (1-((3-(4-aminoimidazo[2,1-f][1,2,4]triazin-7-yl)-4-methylphenyl)sulfonyl)-6-methylpiperidin-2-yl)methanol] | 500 to 1000 nM | < 100 nM | 500 to 2000 nM | 
5 | Cc1ccc(S(=O)(=O)NCC2(O)CNC2)cc1-c1cnc2c(N)nc(C(F)(F)F)nn12 [Example 335, 3-(4-Amino-2-(trifluoromethyl)imidazo[1,2-f][1,2,4]triazin-7-yl)-N-((3-hydroxyazetidin-3-yl)methyl)-4-methylbenzenesulfonamide trifluoroacetate salt] |  | < 100 nM | 100 to 500 nM | 100 to 500 nM
6 | Cc1ccc(S(=O)(=O)N[C@H]2CC[C@H](CC#N)CC2)cc1-c1cnc2c(N)ncnn12 [Example 184, 3-(4-aminoimidazo[2,1-f][1,2,4]triazin-7-yl)-N-(trans-4-(cyanomethyl)cyclohexyl)-4-methylbenzenesulfonamide trifluoroacetate] | < 100 nM | < 100 nM | < 100 nM | 
7 | O=C(O)C(F)(F)F.[2H]C([2H])([2H])c1ccc(S(=O)(=O)NC23CCC(C#N)(CC2)C3)cc1-c1cnc2c(N)ncnn12 [Example 362, 3-(4-Aminoimidazo[2,1-f][1,2,4]triazin-7-yl)-N-(4-cyanobicyclo[2.2.1]heptan-1-yl)-4-(methyl-d3)benzenesulfonamide trifluoroacetate salt] | < 100 nM | < 100 nM | 100 to 500 nM | 
8 | Cc1ccc(S(=O)(=O)N2CCC3(CCOCC3)C2)cc1-c1cnc2c(N)ncnn12 [Example 142, 7-(5-((8-oxa-2-azaspiro[4.5]decan-2-yl)sulfonyl)-2-methylphenyl)imidazo[2,1-f][1,2,4]triazin-4-amine] | 100 to 500 nM | < 100 nM | 500 to 2000 nM | 
9 | Cc1ccc(S(=O)(=O)NCCCO)cc1-c1cnc2c(N)ncnn12 [Example 65, 3-(4-Aminoimidazo[2,1-f][1,2,4]triazin-7-yl)-N-(3-hydroxypropyl)-4-methylbenzenesulfonamide] | > 1000 nM | < 100 nM | > 2000 nM | 
10 | Cc1ccc(S(=O)(=O)N(CCC#N)C2CCCC2)cc1-c1cnc2c(N)nc(C(F)(F)F)nn12 [Example 346, 3-(4-amino-2-(trifluoromethyl)imidazo[2,1-f][1,2,4]triazin-7-yl)-N-(2-cyanoethyl)-N-cyclopentyl-4-methylbenzenesulfonamide] | 100 to 500 nM | < 100 nM | 100 to 500 nM | 
11 | Cc1ccc(S(=O)(=O)N2C[C@@H]3CCO[C@@H]3C2)cc1-c1cnc2c(N)ncnn12 (relative stereo) [Example 211, 7-(5-((cis-Hexahydro-5H-furo[2,3-c]pyrrol-5-yl)sulfonyl)-2-methylphenyl)imidazo[2,1-f][1,2,4]triazin-4-amine] | 500 to 1000 nM | < 100 nM | 500 to 2000 nM | 
12 | Cc1ccc(S(=O)(=O)NCC2(C#N)CCC2)cc1-c1cnc2c(N)ncnn12 [Example 102, 3-(4-Aminoimidazo[1,2-f][1,2,4]triazin-7-yl)-N-((1-cyanocyclobutyl)methyl)-4-methylbenzenesulfonamide trifluoroacetate salt] |  | < 100 nM | 100 to 500 nM | 100 to 500 nM

Next, values leading:

Row | IC50 ([1]; Homo sapiens) | IC50 [2] | IC50 [3] | IC50 [1] | SMILES
13 | < 100 nM | < 100 nM | 100 to 500 nM |  | O=C(O)C(F)(F)F.[2H]C([2H])([2H])c1ccc(S(=O)(=O)NC23CCC(C#N)(C2)C3)cc1-c1cnc2c(N)nc(C)cn12 [Example 379, 3-(8-Amino-6-methylimidazo[1,2-a]pyrazin-3-yl)-N-(4-cyanobicyclo[2.1.1]hexan-1-yl)-4-(methyl-d3)benzenesulfonamide trifluoroacetate salt]
14 | < 100 nM | < 100 nM | < 100 nM |  | Cc1ccc(S(=O)(=O)N2CCC[C@@H](N)C2)cc1-c1cnc2c(N)nc(C(F)(F)F)cn12 [Example 464, (R)-3-(5-((3-Aminopiperidin-1-yl)sulfonyl)-2-methylphenyl)-6-(trifluoromethyl)imidazo[1,2-a]pyrazin-8-amine tris(2,2,2-trifluoroacetate)]
15 | 100 to 500 nM | < 100 nM | 100 to 500 nM |  | COc1cnccc1-c1cn2c(-c3cc(S(C)(=O)=O)ccc3C)cnc2c(N)n1 [Example 485, 6-(3-Methoxypyridin-4-yl)-3-(2-methyl-5-(methylsulfonyl)phenyl)imidazo[1,2-a]pyrazin-8-amine trifluoroacetate]
16 | 100 to 500 nM | < 100 nM | 100 to 500 nM |  | Cc1ccc(S(=O)(=O)NC23COC(C#N)(C2)C3)cc1-c1cnc2c(N)nc(C(F)(F)F)cn12 [Example 429, 3-(8-Amino-6-(trifluoromethyl)imidazo[1,2-a]pyrazin-3-yl)-N-(1-cyano-2-oxabicyclo[2.1.1]hexan-4-yl)-4-methylbenzenesulfonamide trifluoroacetate salt]
17 | > 1000 nM | < 100 nM | 500 to 2000 nM |  | CCOC(=O)C1CCCN(S(=O)(=O)c2ccc(C)c(-c3cnc4c(N)nc(C(F)(F)F)cn34)c2)C1 (stereo not drawn) [Example 509, Ethyl 1-((3-(8-amino-6-(trifluoromethyl)imidazo[1,2-a]pyrazin-3-yl)-4-methylphenyl)sulfonyl)piperidine-3-carboxylate]
18 | 100 to 500 nM | < 100 nM | 100 to 500 nM |  | Cc1ccc(S(=O)(=O)N2CCCC(CN)C2)cc1-c1cnc2c(N)nc(C(F)(F)F)cn12 (stereo not drawn) [Example 513, 3-(5-((3-(Aminomethyl)piperidin-1-yl)sulfonyl)-2-methylphenyl)-6-(trifluoromethyl)imidazo[1,2-a]pyrazin-8-amine trifluoroacetate]
19 | < 100 nM | < 100 nM | 100 to 500 nM |  | O=C(O)C(F)(F)F.[2H]C([2H])([2H])c1ccc(S(=O)(=O)NC23CCC(C#N)(C2)C3)cc1-c1cnc2c(N)nc(C)nn12 [Example 386, 3-(4-Amino-2-methylimidazo[2,1-f][1,2,4]triazin-7-yl)-N-(4-cyanobicyclo[2.1.1]hexan-1-yl)-4-(methyl-d3)benzenesulfonamide trifluoroacetate salt]
